We go through 9 compounds from patent US20260347372A1, “SMALL MOLECULE INHIBITORS OF KRAS G12D MUTANT” (MERCK SHARP & DOHME LLC, priority 2023, published 2026).

Bounds are passed on as bounds.

The target in one experiment is KRAS G12V (Homo sapiens, UniProt P01116, G12V). Nature of the experiment: SOS-catalyzed nucleotide exchange assay, KRAS G12V (Procedure A). It is filed as biochemical. As to conditions: GNE. From the text:
(§1) Procedure for SOS-Catalyzed Nucleotide Exchange Assay for KRAS-WT, G12C/D/V, G13D, HRAS, and NRAS (Procedure A)
(§2) Recombinant KRAS-G12C protein used in this assay has an additional triple mutation (C51S/C80L/C118S). Whereas KRAS-WT, G12D/V, G13D, HRAS and NRAS are in context of their WT protein sequence background. Specifically, the SOS-catalyzed nucleotide exchange assay utilizes a preformed TR-FRET complex containing a specific biotinylated RAS protein (KRAS-WT, G12C/V/D, G13D, HRAS, NRAS; described above) with Bodipy-GDP, and Terbium-streptavidin. Compounds are preincubated with this complex for 60 minutes. Subsequently, recombinant human SOS protein and unlabeled GTP are added to initiate the exchange reaction. Small molecule inhibitors stabilize the Bodipy-GDP complex whereas the untreated protein rapidly exchanges Bodipy-GDP for unlabeled GTP resulting in reduced TR-FRET signal.
(§3) To assemble the preformed TR-FRET complexes, each biotinylated RAS protein is diluted to 2 μM in an EDTA Buffer (20 mM HEPES pH 7.5, 50 mM sodium chloride, 10 mM EDTA, and 0.01% Tween) and incubated at room temperature for one hour. This mixture is then further diluted to 90 nM in an Assay Buffer (20 mM HEPES pH 7.5, 150 mM sodium chloride, 10 mM magnesium chloride, and 0.005% Tween) containing 15 nM of Terbium-Streptavidin (Invitrogen, catalog #PV3577) and 900 nM of Bodipy-GDP (Invitrogen, catalog #G22360) and incubated at room temperature for six hours. It should be noted that this preformed TR-FRET complex for each of the RAS protein were made ahead of time, aliquoted and stored at −80° C. until the day of the experiment.
(§4) Each test compound (10 mM stock in DMSO) is diluted in DMSO to make a final-10-point, 3-fold dilution and is acoustically dispensed into a 384-well assay plate (Corning, catalog #3820) using an Echo 550 (Labcyte). Each well of the assay plate receives 3 μL of a specific 3×RAS preformed TR-FRET complex and 3 μL of Assay Buffer and is incubated at room temperature for 60 minutes (preincubation time). Each well then receives 3 μL of 3× recombinant human SOS protein and GTP (Sigma, G8877) in Assay Buffer and is incubated at room temperature for 30 minutes (G13D), 60 minutes (KRAS WT/G12C/D, H/NRAS) or 90 minutes for G12V. The final reaction in each well of 9 μL consists of 3 mM GTP, specific Ras and SOS proteins in the following concentrations: KRAS-G12C/SOS=3 nM/40 nM, KRAS-WT and G12D/SOS=1 nM/40 nM, KRAS-G12V/SOS=1.25 nM/160 nM, KRAS-G13D/SOS=1.25 nM/0 nM, HRAS and NRAS=1.25 nM/40 nM.
(§5) The time-resolved fluorescence resonance energy transfer (TR-FRET) signal is measured on an Envision (PerkinElmer) plate reader: Excitation filter=340 nm; emission1=495 nm; emission2=520 nm; dichroic mirror=D400/D505; delay time=[…]. The signal of each well is determined as the ratio of the emission at 520 nm to that at 495 nm. Percent effect of each well is determined after normalization to control wells containing DMSO (no effect) or a saturating concentration of inhibitor (max effect). The apparent effect as a function of compound concentration is fit to a four-parameter logistic equation.
(§6) For Example No. 14, nucleotide exchange assays for KRAS G12D, WT, G12C, and G12V were performed according to Procedure B. All the other compounds were tested according to Procedure A.

The next experiment deals with KRAS WT (Homo sapiens, UniProt P01116). Kind of experiment: SOS-catalyzed nucleotide exchange assay, KRAS WT (Procedure A). The note with it: GNE. It is filed as biochemical.
KRAS WT, sequence (P01116 with tags, fused parts or gaps isoform P01116-2): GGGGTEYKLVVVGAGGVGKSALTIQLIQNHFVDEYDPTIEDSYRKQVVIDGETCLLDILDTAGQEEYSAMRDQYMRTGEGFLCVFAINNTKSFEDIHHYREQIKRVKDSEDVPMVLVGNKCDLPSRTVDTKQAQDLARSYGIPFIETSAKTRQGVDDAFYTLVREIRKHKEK
From the text: as §1, §2, §3, §4, §5, §6

For a further experiment, the target named is T1, AsPC-1 cells (Homo sapiens, UniProt P01116, G12D).
T1 construct: p-ERK/total ERK AlphaSureFire read-out
T1 sequence (P01116 1-188 isoform P01116-2 G12D): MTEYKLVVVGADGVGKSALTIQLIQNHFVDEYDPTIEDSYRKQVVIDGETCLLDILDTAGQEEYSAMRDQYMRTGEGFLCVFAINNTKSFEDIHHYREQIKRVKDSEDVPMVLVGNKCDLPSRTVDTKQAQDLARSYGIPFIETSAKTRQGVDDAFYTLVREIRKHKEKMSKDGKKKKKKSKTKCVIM
Nature of the experiment: Cellular phospho-ERK assay, AsPC-1 cells (KRAS G12D). It is filed as cell-based. As to conditions: 2 hours, read-out: AsPC1 pERK IC50. Here is the method:
Procedure for Cellular Phospho-ERK Assay in KRAS Wild Type and Mutant (G12D, G12V) Cell Lines
PANC08.13 cells (ATCC® CRL-2551™), containing homozygous KRAS-G12D activating mutation, were cultured in growth medium made of RPMI1640-GlutaMAX™-I (ThermoFisher Scientific 61870) containing 15% heat inactivated fetal bovine serum (ThermoFisher Scientific 10091148)). AsPC-1 cells (ATCC® CRL-1682™), containing homozygous KRAS-G12D activating mutation, were cultured in T150 flask in growth medium (RPMI medium 1640-GlutaMAX™-I (ThermoFisher Scientific 61870) containing 10% fetal bovine serum (ThermoFisher Scientific 10091148)).
Cells for the assay were harvested in growth medium after TrypLE (ThermoFisher scientific 12604021) digestion and were seeded in a 384-well collagen coated cell culture plate (Corning 356702) at a density of 10,000-15,000 cells/20 μL/well, and incubated at 37° C., 5% CO2 overnight. The compound (with 10 mM stock concentration) dose-response titrations were prepared [30 μM final ERK detection assay concentration and 1:3 dilutions, 10-point dose response] and appropriate amounts (270 nL) of test compounds were dispensed in a 384-well intermediate plate using an Echo 550 liquid handler. 30 μL/well of RPMI medium 1640-GlutaMAX™-I was added to the intermediate plate and the contents of the intermediate plate (10 μL/well) were then transferred to the 384-well collagen coated cell culture plate, which was incubated at 37° C., 5% CO2 for 2 hours. After removal of medium from the collagen coated cell culture plate, cells were lysed in lysis buffer from Alpha SureFire® Ultra™ Multiplex p-ERK and total ERK assay kit (PerkinElmer MPSU-PTERK) containing Halt™ Protease and Phosphatase inhibitor cocktail (ThermoFisher Scientific 78446) at room temperature with constant shaking at 300 rpm for 30 minutes. The cell lysates were then transferred to an OptiPlate-384 plate (PerkinElmer 6005620), and the phosphorylation of ERK (p-ERK) and total ERK levels were detected by Alpha SureFire® Ultra™ Multiplex p-EEK kit and total ERK assay kit (PerkinElmer MPSU-PTERK) following the manufacturer's protocol. Assay plates were read on a EnVision Multimode Plate Reader (PerkinElmer), and the ratio of p-ERK vs. total ERK in each well was used as the final readout. Dose response curves were analyzed using a 4-parameter logistic model to calculate IC50 values using Spotfire software.

A further experiment addresses KRAS G12D (Homo sapiens, UniProt P01116, G12D). Nature of the experiment: SOS-catalyzed nucleotide exchange assay, KRAS G12D (Procedure A). Format: biochemical. The note with it: guanine nucleotide exchange (GNE).
From the text: as §1, §2, §3, §4, §5, §6

KRAS G12D, sequence (P01116 with tags, fused parts or gaps isoform P01116-2 G12D): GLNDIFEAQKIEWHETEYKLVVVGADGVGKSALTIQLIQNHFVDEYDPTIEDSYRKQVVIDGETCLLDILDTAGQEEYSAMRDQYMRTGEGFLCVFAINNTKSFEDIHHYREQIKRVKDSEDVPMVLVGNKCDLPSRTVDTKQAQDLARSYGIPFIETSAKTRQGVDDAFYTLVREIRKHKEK
KRAS G12V, sequence (P01116 with tags, fused parts or gaps isoform P01116-2 G12V): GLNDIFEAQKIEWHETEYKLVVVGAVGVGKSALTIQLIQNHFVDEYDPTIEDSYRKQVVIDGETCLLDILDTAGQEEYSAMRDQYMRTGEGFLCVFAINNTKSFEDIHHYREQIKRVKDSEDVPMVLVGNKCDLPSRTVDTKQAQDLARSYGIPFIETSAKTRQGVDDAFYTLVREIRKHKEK

`C#Cc1c(F)ccc2cc3[nH]ncc3c(-c3nccc4c3sc3nc(OC[C@]5(CN6CC[C@@H](F)C6)CC5(F)F)nc(N5C[C@H]6CC[C@@H](C5)N6)c34)c12` [Ex-103, 4-((1R,5S)-3,8-diazabicyclo[3.2.1]octan-3-yl)-2-(((R)-2,2-difluoro-1-(((R)-3-fluoropyrrolidin-1-yl)methyl)cyclopropyl)methoxy)-8-(5-ethynyl-6-fluoro-1H-benzo[f]indazol-4-yl)pyrido[4′,3′:4,5]thie-no[2,3-d]pyrimidine]: the half-inhibitory concentration (IC50) – broadly, the concentration at which inhibition is half-maximal – on KRAS G12V came to 9280 nM; against KRAS WT it was 2360 nM; on AsPC-1 cells it was 296 nM; against KRAS G12D, 2 nM.
`C#Cc1c(F)ccc2cc3[nH]ncc3c(-c3nccc4c3sc3nc(OC[C@@]56CCCN5C/C(=C\F)C6)nc(N5C[C@@H]6C[C@H](O)[C@H](C5)N6)c34)c12` [Ex-114, (1S,5S,6S)-3-(8-(5-ethynyl-6-fluoro-1H-benzo[f]indazol-4-yl)-2-(((S,Z)-2-(fluoromethylene)tetrahydro-1H-pyrrolizin-7a(5H)-yl)methoxy)pyrido[4′,3′:4,5]thieno[2,3-d]pyrimidin-4-yl)-3,8-diazabicyclo[3.2.1]octan-6-ol]: the IC50 on KRAS G12V is 37.7 nM; on KRAS WT, 36.2 nM; on AsPC-1 cells it was 97 nM; on KRAS G12D it was 1.81 nM.
With `C#Cc1c(F)ccc2cc3[nH]ncc3c(-c3nccc4c3sc3nc(OC[C@]5(CN6CCC6)CC5(F)F)nc(N5C[C@H]6CC[C@@H](C5)N6)c34)c12` [Ex-107, 2-(((R)-1-(azetidin-1-ylmethyl)-2,2-difluorocyclopropyl)meth-oxy)-4-((1R,5S)-3,8-diazabicyclo[3.2.1]octan-3-yl)-8-(5-ethynyl-6-fluoro-1H-benzo[f]indazol-4-yl)pyrido[4′,3′:4,5]thie-no[2,3-d]pyrimidine], the IC50 against KRAS G12V is 1030 nM; against KRAS WT, 800 nM; at AsPC-1 cells, 51.8 nM; at KRAS G12D it was 3.23 nM.
For `C#Cc1c(F)ccc2cc3[nH]ncc3c(-c3nccc4c3sc3nc(OC[C@]5(CN6CCN(C(C)=O)CC6)CC5(F)F)nc(N5C[C@H]6CC[C@@H](C5)N6)c34)c12` [Ex-102, 1-(4-(((1R)-1-(((4-((1R,5S)-3,8-diazabicyclo[3.2.1]octan-3-yl)-8-(5-ethynyl-6-fluoro-1H-benzo[f]indazol-4-yl)pyrido [4′,3′:4,5]thie-no[2,3-d]pyrimidin-2-yl)oxy)methyl)-2,2-difluorocyclopropyl)meth-yl)piperazin-1-yl)ethan-1-one], in that order: above 11100 nM, above 11100 nM, 2770 nM and 12.3 nM.
For `Cc1cc2[nH]ncc2c(-c2nccc3c2sc2nc(OCC45COC(CF)(C4)C5)nc(N4C[C@H]5CC[C@@H](C4)N5)c23)c1C(F)(F)F` [Ex-28, 4-((1R,5S)-3,8-diazabicyclo[3.2.1]octan-3-yl)-2-((1-(fluoromethyl)-2-oxabicyclo[2.1.1]hexan-4-yl)methoxy)-8-(6-methy1-5-(trifluoromethyl)-1H-indazol-4-yl)pyrido[4′,3′:4,5]thieno[2,3-d]pyrimidine], in that order: above 11100 nM, above 11100 nM, above 30000 nM and 3340 nM.
In the case of `Cc1cc2[nH]ncc2c(-c2nccc3c2sc2nc(N4CCCN(C)CC4C)nc(N4C[C@H]5CC[C@@H](C4)N5)c23)c1C(F)(F)F` (stereo partly drawn) [Ex-81, 4-((1R,5S)-3,8-diazabicyclo[3.2.1]octan-3-yl)-2-(2,4-dimethyl-1,4-diazepan-1-yl)-8-(6-methyl-5-(trifluoromethyl)-1H-indazol-4-yl)pyrido[4′,3′:4,5]thieno[2,3-d]pyrimidine], the concentration for half-maximal inhibition (IC50) on KRAS G12V is above 11100 nM; at KRAS WT it was above 11100 nM; on AsPC-1 cells, 6800 nM; against KRAS G12D, 575 nM.
As for `C#Cc1csc2cc3[nH]ncc3c(-c3nccc4c3sc3nc(OCC5(C#N)CCOCC5)nc(N5C[C@H]6CC[C@@H](C5)N6)c34)c12` [Ex-84, 4-(((4-((1R,5S)-3,8-diazabicyclo[3.2.1]oc-tan-3-yl)-8-(5-ethynyl-1H-thieno[3,2-f]indazol-4-yl)pyrido[4′,3′:4,5]thi-eno[2,3-d]pyrimi-din-2-yl)oxy)methyl)tetrahydro-2H-pyran-4-carbonitrile], the IC50 against KRAS G12V is above 11100 nM; against KRAS WT, above 11100 nM; at AsPC-1 cells, 2940 nM; at KRAS G12D it was 111 nM.
As to `C#Cc1c(F)ccc2cc3[nH]ncc3c(-c3nccc4c3sc3nc(OCC5(CN(C)C)COC5)nc(N5C[C@H]6CC[C@@H](C5)N6)c34)c12` [Ex-95, 1-(3-(((4-((1R,5S)-3,8-diazabicyclo[3.2.1]octan-3-yl)-8-(5-ethynyl-6-fluoro-1H-benzo[f]indazol-4-yl)pyrido[4′,3′:4,5]thie-no[2,3-d]pyrimidin-2-yl)oxy)methyl)oxetan-3-yl)-N,N-dimethylmethanamine], the IC50 against KRAS G12V turned out to be 6760 nM; at KRAS WT, 2800 nM; at AsPC-1 cells it was 180 nM; against KRAS G12D, 5.29 nM.
Regarding `C#Cc1c(F)ccc2cc3[nH]ncc3c(-c3nccc4c3sc3nc(OC[C@]5(CN6CCC(COC)CC6)CC5(F)F)nc(N5C[C@H]6CC[C@@H](C5)N6)c34)c12` [Ex-111, 4-((1R,5S)-3,8-diazabicyclo[3.2.1]octan-3-yl)-2-(((R)-2,2-difluoro-1-((4-(methoxymethyl)piperidin-1-yl)methyl)cyclopropyl)methoxy)-8-(5-ethynyl-6-fluoro-1H-benzo[f]indazol-4-yl)pyrido[4′,3′:4,5]thieno[2,3-d]pyrimidine], the 50% inhibitory concentration (IC50) turned out to be 4400 nM against KRAS G12V, 1720 nM against KRAS WT, 172 nM on AsPC-1 cells and 5.43 nM against KRAS G12D.
